Active and inactive are the calls of the source.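 How the source made its calls: active means signal falls with dose and the fitted half-maximal concentration is at or below twice the top valid tested dose; inconclusive means flat curve with 30 to 70% inhibition, or poor fit; inactive means wrong direction, flat within 30%, or potency beyond limit.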
Each compound was assayed against Golgi-associated PDZ and coiled-coil motif-containing protein (Homo sapiens) (UniProt Q9HD26) (assay: blockers of CAL PDZ ligand groove binding – biochemical, fluorescence polarization, untagged CAL PDZ, cherry-pick, dose response (AID 602267;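 on activity change, negative = inhibition: 0% = DMSO neutral wells and -100% = excess unlabeled competitor peptide wells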)). Conditions: purified CAL PDZ, TMR-peptide fluorescence polarization, 1 h.

SMILES | AC50 [µM]
COC(=O)c1ccccc1-c1c2ccc(=N)cc-2oc2cc(N)ccc12 | 2.03
CCOc1ccc(S(=O)(=O)Nc2cc(SCC(=O)O)c(O)c3ccccc23)cc1 | 39

Same assay, conditions: purified CAL PDZ, TMR-peptide fluorescence polarization, 1 h; at 16 µM (top of the series)

SMILES | activity change, negative = inhibition
CC1CCN(c2nc3c(c(=O)n(C)c(=O)n3C)n2CCSc2nc3ccccc3s2)CC1 | inactive

Same assay, conditions: purified CAL PDZ, TMR-peptide fluorescence polarization, 1 h; at 50 µM (top of the series)

SMILES | activity change, negative = inhibition
Cc1sc2ncn(CC(=O)NCCCC(=O)N3CCN(Cc4ccc5c(c4)OCO5)CC3)c(=O)c2c1C | inactive
Nc1ncnc2c1C(c1ccccc1)c1c(ccc3ccccc13)O2 (configuration not stated) | inactive
O=C1CN=C(c2ccccc2)c2oc3ccc(Br)cc3c2N1 | inactive
COC(=O)CN1C(=O)N/C(=C/c2cc(Cl)c(OC)c(OC)c2)C1=O | inactive
CN(c1nc(-c2ccc(Br)cc2)cs1)C1CCS(=O)(=O)C1 (configuration not stated) | inactive
COc1cccc(CN2CCN(C3CSCCSC3)CC2CCO)c1 (configuration not stated) | inactive
CN(C)/N=C1\CCS(=O)(=O)c2sccc21 | inactive
CC1CCC(NC(=O)c2ccc3c(c2)S(=O)(=O)c2ccccc2C3=O)CC1 (configuration not stated) | inactive
COc1ccc(Nc2cccccc2=O)cc1 | inactive
CC(=O)Nc1cccc(NC(=O)CSc2nnc(NC(=O)c3ccco3)s2)c1 | inactive
Cc1sc(NC(=O)c2ccco2)c(C(Nc2ccccn2)c2ccccc2)c1C (configuration not stated) | inactive
O=C(NC(=S)NCCCN1CCOCC1)c1ccc(Br)cc1 | inactive
Cc1ccc(C(C)NC(=O)Cc2cccs2)c(C)c1 (configuration not stated) | inactive
CCOC(=O)N1CCN(Cc2nc3c(c(=O)n(C)c(=O)n3C)n2Cc2cccc(C)c2)CC1 | inactive
Cc1cc(Cl)c(Cl)cc1S(=O)(=O)NCCCn1ccnc1 | inactive
Cc1cc(C)nc(/N=C(\N)N2CCc3ccccc32)n1 | inactive
O=C(O)c1ccc(S(=O)(=O)c2ccc3c(c2)C(=O)N(c2ccccc2[N+](=O)[O-])C3=O)cc1 | inactive
COc1cc(Br)c(C(=O)c2nccc3cc(OC)c(OC)cc23)cc1OC | inactive
CSC1=NP(=S)(SC)N2CCCC2=C1C#N (configuration not stated) | inactive
COc1ccc(C(C)=O)cc1COC(=O)CNC(=O)c1ccccc1F | inactive

SMILES | activity change, negative = inhibition
CC(=O)Nc1ccc(Nc2ccc3nonc3c2[N+](=O)[O-])cc1 | inactive
CS(=O)(=O)N1CCN(C(=O)c2ccc3c(c2)OCCO3)CC1 | inactive
O=C(NC1CCCN(Cc2ccc(Cl)cc2)C1)c1cccc(N2CCCC2=O)c1 (configuration not stated) | inactive
Cc1cc(/C=C2\SC(=O)N(C)C2=O)c(C)n1-c1ccc(O)cc1 | inactive
COc1ccc(C(=O)Nc2ccc(S(=O)(=O)N3CCCC3)cc2)cc1[N+](=O)[O-] | inactive
CCOc1ccccc1N(CC(=O)Nc1cccc2ccccc12)S(C)(=O)=O | inactive
COc1ccc(CC(=O)NNC(=O)CCc2ccccc2)cc1OC | inactive
CCOC(=O)C1=C(C)OC(N)=C(C#N)C1c1cccc(C)c1 (configuration not stated) | inactive
O=C(CN1C(=O)NC2(CCCC2)C1=O)Nc1ccc(F)c(F)c1F | inactive
CCOc1ccc(C(=O)NCC(=O)N2CCC(C)CC2)cc1OCC | inactive
COn1c(SCc2ccccc2)nc2ccccc2c1=O | inactive
COC(=O)c1ccccc1NC(=O)n1cc(C)cn1 | inactive
O=C(NCc1ccccn1)c1ccc(NS(=O)(=O)c2ccccc2)cc1 | inactive
Cc1ccc(S(=O)(=O)N2CCN(C(=O)c3ccccn3)CC2)cc1 | inactive
CC(C)OCCCNC(=O)C1CC(=O)N(CCc2ccc(F)cc2)C1 (configuration not stated) | inactive
O=C(NC12CC3CC(CC(C3)C1)C2)c1ccco1 | inactive
COc1ccc2ccccc2c1CN(C)Cc1ccccc1 | inactive
COCCOC(=O)c1c(C)oc2ccc(OS(C)(=O)=O)cc12 | inactive
Cc1ccc(-c2nc3ccccc3c(=O)o2)cc1 | inactive
O=C(NCCN1C(=O)S/C(=C\c2ccc(Cl)c(Cl)c2)C1=O)C1COc2ccccc2O1 (configuration not stated) | inactive

SMILES | activity change, negative = inhibition
Cc1ccc(Cl)c2c(N=Nc3ccccc3)c(O)[nH]c12 | inactive
N#Cc1ccc(CC(=O)c2ccccc2)[nH]c1=O | inactive
CO[C@H]1O[C@H](C)[C@@H](O)C[C@H]1NC(=O)OCc1ccccc1 | inactive
O=C(CCN1C(=O)c2ccccc2C1=O)CN1CCOCC1 | inactive
O=C(c1cc2cc([N+](=O)[O-])ccc2oc1=O)N1CCN(C2CCCCC2)CC1 | inactive
COc1ccc(Oc2nc3c(c(=O)n(C)c(=O)n3C)n2C)cc1 | inactive
Oc1ccc(C=Nc2cccc3ccccc23)c(O)c1 | inactive
O=P(O)(COc1ccccc1)COc1ccccc1 | inactive
Nc1nc2ccccc2cc1S(=O)(=O)c1ccccc1 | inactive
CCOC(=O)CCNC(=O)N1CCCC(CNS(=O)(=O)Cc2ccccc2)C1 (configuration not stated) | inactive
Cc1ccc(S(=O)(=O)N2CCN(CCC#N)CC2)cc1 | inactive
COc1ccc(C2/C(=C(/O)c3ccc(C)cc3)C(=O)C(=O)N2C)c(OC)c1 (configuration not stated) | inactive
C=CCN1C(=O)/C(=C/c2ccsc2)SC1=S | inactive
Cn1c(=O)c2c(ncn2CC(=O)Nc2nc(-c3ccccc3Cl)cs2)n(C)c1=O | inactive
CCCn1cnc2c(SCCc3ccccc3)nc(N)nc21 | inactive
CCN(CC)S(=O)(=O)c1cc(C(=O)Oc2ccccc2OC)ccc1OC | inactive
Cc1ccc2nc3c(nc2c1)-c1ccccc1C3=O | inactive
COc1ccc(S(=O)(=O)N2CCOCC2)cc1NC(=O)CN1CCCCCC1 | inactive
Cc1cccc(CN2CCc3c([nH]c4ccccc34)C2CC(C)C)n1 (configuration not stated) | inactive
